Starred links: 1 amine or outer side, 2 acyl side, 3 side chain; linkers in the order of their positions; H or OH if unused. Positions of bridges follow the written chain, without caps; N, C: chain ends. Residues, ends and D or L forms follow the SMILES beside them. Chains are numbered I, II in the order given. X1 = c1cc(C[*:1])ccc1COCc1ccc(C[*:2])cc1
Molecular target: T1, MYC/MAX complex (Homo sapiens, UniProt P01106)
T1 construct: we used recombinant MYC protein (MYC^353–437); His6 (N)
Experiment: Fluorescence polarization direct binding to the MYC/MAX complex
Details: FP direct binding of fluorescein-labeled peptide to preformed MYC/MAX heterodimer; read-out: CHD^Max-1 Binding Affinity, Kd (MYC/MAX)
Description: pET151-D-TOPO-cMyc vector was kindly provided by Dr. Edward Prochownik from the
Department of Pediatrics at UPMC Children’s Hospital of Pittsburgh. Expression and purification
of Myc353-437 were performed using an established protocol with minor modifications.7 BL21(DE3)
cells were used to express recombinant Myc353-437 protein. Bacteria were grown at 37 °C to OD600
of 0.8 followed by 1 mM IPTG induction and 16-18h growth at RT. Cells were harvested via
centrifugation at 4,000 rpm at 4 °C and the pellet was resuspended in 10 mL of lysis buffer (8 M
urea, 100 mM NaH2PO4, 10 mM Tris HCl, pH 8) supplemented with protease inhibitor cocktail
(PierceTM Protease Inhibitor Tablets) and benzonase nuclease. Suspensions were sonicated on
ice using a Branson Cell Disruptor 200 and centrifuged at 12,000 rpm for 45 min at 4 °C. Clarified
lysate was applied to a column containing pre-equilibrated HisPur Ni-NTA Superflow Agarose
(ThermoFisher Scientific) for overnight at 4 °C. The resin beads were washed with 10 mL of
additional lysis buffer followed by three washes of 10 mL wash buffer (8 M urea, 100 mM
NaH2PO4, 10 mM Tris HCl, 10 mM imidazole). The target protein was eluted with elution buffer (8 […]
Fluorescence Polarization Binding Assay […]
determined using fluorescence polarization-based direct binding assay. […]
from 10 μM into 15 nM of FITC-labeled peptide in assay buffer. KD was determined using the […]

T1 sequence (P01106 368-452): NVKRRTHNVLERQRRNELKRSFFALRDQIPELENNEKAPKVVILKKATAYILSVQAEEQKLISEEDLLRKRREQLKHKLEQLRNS
T1 sequence (P61244 whole entry partner): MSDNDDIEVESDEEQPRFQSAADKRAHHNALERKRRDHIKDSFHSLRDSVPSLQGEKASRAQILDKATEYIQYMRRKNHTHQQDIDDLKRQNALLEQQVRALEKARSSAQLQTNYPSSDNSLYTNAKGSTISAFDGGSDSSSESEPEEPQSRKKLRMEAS

CC[C@H](C)[C@H](NC(=O)[C@H](CCCCN)NC(=O)[C@H](CCC(=O)O)NC(=O)[C@H](CCCNC(=N)N)NC(=O)[C@H](CC(C)C)NC(C)=O)C(=O)N[C@@H](C)C(=O)N[C@H](C(=O)N[C@@H](CC(C)C)C(=O)N[C@@H](CCC(N)=O)C(=O)N[C@@H](Cc1c[nH]c2ccccc12)C(=O)N[C@@H](CSCc1ccc(COCc2ccc(CSC[C@H](NC(=O)[C@H](CC(C)C)NC(=O)[C@H](CCC(=O)O)NC(=O)[C@H](CCC(=O)O)NC(=O)[C@@H](NC(=O)[C@H](CCC(=O)O)NC(=O)[C@H](Cc3c[nH]c4ccccc34)NC(=O)[C@H](CCC(N)=O)NC(=O)[C@H](Cc3c[nH]cn3)NC(=O)[C@@H](NC(=O)[C@H](CCC(=O)O)NC(=O)[C@H](CC(N)=O)NC(=O)[C@H](CCCCN)NC(=O)[C@H](CCCNC(=N)N)NC(=O)[C@H](CCCNC(=N)N)NC(=O)[C@H](CC(C)C)NC(C)=O)[C@@H](C)O)[C@@H](C)CC)C(N)=O)cc2)cc1)C(=O)N[C@H](C(=O)N[C@@H](CCC(=O)O)C(=O)N[C@@H](CCC(=O)O)C(=O)N[C@@H](CC(C)C)C(=O)N[C@@H](CCCNC(=N)N)C(=O)N[C@@H](CCCCN)C(N)=O)[C@@H](C)CC)[C@@H](C)O [CHD^Max-1] (I: Ac-LREKIATLQWCIEELRK-NH2 / II: Ac-LRRKNETHQWEIEELC-NH2; linker I:11-II:16 via X1)
Kd: 460 ± 150 nM
